What was measured:
Assay type in all cases: in vivo
Scirpus juncoides [1] = assay: Test Example 1: herbicidal activity, application before weed generation in submerged conditions (symbol B); conditions: application herbicide amount 320 g/ha
In short: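 0–5 visual score, 3 wk post-application. Submerged pots, alluvial soil, water 4 cm; seeds sown mixed, rice at 2.5 leaves transplanted. Emulsion diluted to predetermined dose, applied to water surface at sowing. 25–30 °C greenhouse.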

[2] = system: Echinochloa oryzacola Vasing.; assay: Test Example 2: herbicidal activity, application during weed generation in submerged conditions (symbol A); conditions: Table 23; application herbicide amount 320 g/ha; grade 0-5 by criteria of Test Example 1
In short: (§1)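 Submerged alluvial soil (4 cm) sown with mixed seed; greenhouse 25–30° C. 1–2 leaf: diluted emulsion onto water surface, preset dose. Visual score, 3 wk.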

Scirpus juncoides [3] = assay: Test Example 2: herbicidal activity, application during weed generation in submerged conditions (symbol B); conditions: Table 23; application herbicide amount 320 g/ha; grade 0-5 by criteria of Test Example 1
In short: as §1

Cyperus difformis = assay: Test Example 3: herbicidal effect by foliage application, Wagner pot (symbol E); conditions: application herbicide amount 320 g/ha
In short: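 Steps: fill pot with alluvial soil; add water to 0.1–0.5 cm depth; sow weed and rice seed; grow 14 days at 25–30 °C; spray diluted emulsion over the leaves; rate effect after 3 weeks.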

corn = assay: Test Example 4: effect on crop by soil treatment (symbol c); conditions: application herbicide amount 320 g/ha
In short: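 Greenhouse culture at 25° C. to 30° C. followed sowing of seed in spots on sterilized diluvial soil with a soil cover close to 1.5 cm thick.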

Amaranthus retroflexus = assay: Test Example 5: herbicidal effect by foliage application, plastic box (symbol N); conditions: 320 g/ha, 3 weeks after application
In short: (§2)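 Visual herbicidal score, taken three weeks post-application, of seedlings sprayed on the foliage with water-diluted emulsion at a predetermined amount; plants were 14 days old, greenhouse-raised at 25° C. to 30° C.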

Galium spurium = assay: Test Example 5: herbicidal effect by foliage application, plastic box (symbol Q); conditions: 320 g/ha, 3 weeks after application
In short: as §2

Veronica persica = assay: Test Example 5: herbicidal effect by foliage application, plastic box (symbol R); conditions: 320 g/ha, 3 weeks after application
In short: as §2

soybean = assay: Test Example 5: effect on crop by foliage application, plastic box (symbol d); conditions: 320 g/ha, 3 weeks after application
In short: (§3)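 In a plastic box 7 cm deep filled with sterilized diluvial soil, seeds of crops and weeds such as Digitaria ciliaris, Avena fatua and Amaranthus retroflexus are sown in spots and covered with about 1.5 cm of soil before greenhouse growth at 25–30° C.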

rice plant = assay: Test Example 5: effect on crop by foliage application, plastic box (symbol b); conditions: 320 g/ha, 3 weeks after application
In short: as §3

wheat = assay: Test Example 5: effect on crop by foliage application, plastic box (symbol e); conditions: 320 g/ha, 3 weeks after application
In short: as §3

Stellaria media = assay: Test Example 4: herbicidal effect by soil treatment (symbol P); conditions: application herbicide amount 320 g/ha
In short: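 Seeds were sown in sterilized diluvial soil, covered with about 1.5 cm of soil, and the soil surface was sprayed with a water-diluted emulsion of the compound at a predetermined rate. Plants grew in a greenhouse at 25° C. to 30° C.; effects were scored visually 3 weeks after application.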

CC(CC1CC(O)=C(c2c(C)cc(C)cc2C)C1=O)=NOCc1ccccn1 (stereo not drawn) [1-022]
Herbicidal effect grade, B: Scirpus juncoides (Scirpus juncoides [1]): 5 (Herbicidal ratio of 90% or more (almost completely withered))
Herbicidal effect grade, A: Echinochloa oryzacola Vasing. [2]: 4 (Herbicidal ratio of 70% or higher and lower than 90%)
Herbicidal effect grade, B: Scirpus juncoides (Scirpus juncoides [3]): 5 (Herbicidal ratio of 90% or more (almost completely withered))
herbicidal effect on E, grade 0-5 (Cyperus difformis): 4 (Herbicidal ratio of 70% or higher and lower than 90%)
c (corn) effect on crop grade (corn): 0 (Herbicidal ratio of 5% or lower (almost no effect))
N: Amaranthus retroflexus, herbicidal effect grade (Amaranthus retroflexus): 1 (Herbicidal ratio of 5% or higher and lower than 20%)
Q: Galium spurium, herbicidal effect grade (Galium spurium): 4 (Herbicidal ratio of 70% or higher and lower than 90%)
R: Veronica persica, herbicidal effect grade (Veronica persica): 3 (Herbicidal ratio of 40% or higher and lower than 70%)
d: soybean, effect on crop grade (soybean): 3 (Herbicidal ratio of 40% or higher and lower than 70%)
b: directly sowed rice plant, effect on crop grade (rice plant): 5 (Herbicidal ratio of 90% or more (almost completely withered))
e: wheat, effect on crop grade (wheat): 5 (Herbicidal ratio of 90% or more (almost completely withered))

CON=C(C)CC1CC(OC(=O)C2CC2)=C(c2c(C)cc(C)cc2C)C1=O (stereo not drawn) [1-015]
Herbicidal effect grade, B: Scirpus juncoides (Scirpus juncoides [1]): 5 (Herbicidal ratio of 90% or more (almost completely withered))
Herbicidal effect grade, A: Echinochloa oryzacola Vasing. [2]: 5 (Herbicidal ratio of 90% or more (almost completely withered))
Herbicidal effect grade, B: Scirpus juncoides (Scirpus juncoides [3]): 4 (Herbicidal ratio of 70% or higher and lower than 90%)
herbicidal effect on E, grade 0-5 (Cyperus difformis): 5 (Herbicidal ratio of 90% or more (almost completely withered))
c (corn) effect on crop grade (corn): 4 (Herbicidal ratio of 70% or higher and lower than 90%)
N: Amaranthus retroflexus, herbicidal effect grade (Amaranthus retroflexus): 4 (Herbicidal ratio of 70% or higher and lower than 90%)
Q: Galium spurium, herbicidal effect grade (Galium spurium): 4 (Herbicidal ratio of 70% or higher and lower than 90%)
R: Veronica persica, herbicidal effect grade (Veronica persica): 4 (Herbicidal ratio of 70% or higher and lower than 90%)
d: soybean, effect on crop grade (soybean): 5 (Herbicidal ratio of 90% or more (almost completely withered))
b: directly sowed rice plant, effect on crop grade (rice plant): 5 (Herbicidal ratio of 90% or more (almost completely withered))
e: wheat, effect on crop grade (wheat): 5 (Herbicidal ratio of 90% or more (almost completely withered))

CC(=O)CC1CC(O)=C(c2c(C)cc(OCC(F)(F)F)cc2C)C1=O (stereo not drawn) [7-015]
Herbicidal effect grade, B: Scirpus juncoides (Scirpus juncoides [1]): 1 (Herbicidal ratio of 5% or higher and lower than 20%)
Herbicidal effect grade, A: Echinochloa oryzacola Vasing. [2]: 5 (Herbicidal ratio of 90% or more (almost completely withered))
Herbicidal effect grade, B: Scirpus juncoides (Scirpus juncoides [3]): 0 (Herbicidal ratio of 5% or lower (almost no effect))
herbicidal effect on E, grade 0-5 (Cyperus difformis): 5 (Herbicidal ratio of 90% or more (almost completely withered))
Herbicidal effect grade, P: Stellaria media (Stellaria media): 0 (Herbicidal ratio of 5% or lower (almost no effect))
Effect on crop grade, c: corn (corn): 5 (Herbicidal ratio of 90% or more (almost completely withered))
N: Amaranthus retroflexus, herbicidal effect (criteria of Test Example 1) (Amaranthus retroflexus): 0 (Herbicidal ratio of 5% or lower (almost no effect))
R: Veronica persica, herbicidal effect (criteria of Test Example 1) (Veronica persica): 4 (Herbicidal ratio of 70% or higher and lower than 90%)
d: soybean, effect on crop (criteria of Test Example 1) (soybean): 0 (Herbicidal ratio of 5% or lower (almost no effect))
b: directly sowed rice plant, effect on crop (criteria of Test Example 1) (rice plant): 5 (Herbicidal ratio of 90% or more (almost completely withered))
e: wheat, effect on crop (criteria of Test Example 1) (wheat): 5 (Herbicidal ratio of 90% or more (almost completely withered))

CC(=O)CC1CC(O)=C(c2c(C)cc(-c3ccc(Cl)cc3)cc2C)C1=O (stereo not drawn) [7-008]
Herbicidal effect grade, B: Scirpus juncoides (Scirpus juncoides [1]): 2 (Herbicidal ratio of 20% or higher and lower than 40%)
Herbicidal effect grade, A: Echinochloa oryzacola Vasing. [2]: 4 (Herbicidal ratio of 70% or higher and lower than 90%)
Herbicidal effect grade, B: Scirpus juncoides (Scirpus juncoides [3]): 0 (Herbicidal ratio of 5% or lower (almost no effect))
herbicidal effect on E, grade 0-5 (Cyperus difformis): 5 (Herbicidal ratio of 90% or more (almost completely withered))
Herbicidal effect grade, P: Stellaria media (Stellaria media): 0 (Herbicidal ratio of 5% or lower (almost no effect))
Effect on crop grade, c: corn (corn): 4 (Herbicidal ratio of 70% or higher and lower than 90%)
N: Amaranthus retroflexus, herbicidal effect (criteria of Test Example 1) (Amaranthus retroflexus): 0 (Herbicidal ratio of 5% or lower (almost no effect))
R: Veronica persica, herbicidal effect (criteria of Test Example 1) (Veronica persica): 3 (Herbicidal ratio of 40% or higher and lower than 70%)
d: soybean, effect on crop (criteria of Test Example 1) (soybean): 0 (Herbicidal ratio of 5% or lower (almost no effect))
b: directly sowed rice plant, effect on crop (criteria of Test Example 1) (rice plant): 5 (Herbicidal ratio of 90% or more (almost completely withered))
e: wheat, effect on crop (criteria of Test Example 1) (wheat): 4 (Herbicidal ratio of 70% or higher and lower than 90%)

CON=C(C)C(=O)C1CC(O)=C(c2c(C)cc(C)cc2C)C1=O (stereo not drawn) [8-002]
Herbicidal effect grade, B: Scirpus juncoides (Scirpus juncoides [1]): 0 (Herbicidal ratio of 5% or lower (almost no effect))
Herbicidal effect grade, A: Echinochloa oryzacola Vasing. [2]: 0 (Herbicidal ratio of 5% or lower (almost no effect))
Herbicidal effect grade, B: Scirpus juncoides (Scirpus juncoides [3]): 0 (Herbicidal ratio of 5% or lower (almost no effect))
E herbicidal effect grade (Cyperus difformis; Table 24): 0 (Herbicidal ratio of 5% or lower (almost no effect))
Herbicidal effect grade, P: Stellaria media (Stellaria media): 0 (Herbicidal ratio of 5% or lower (almost no effect))
Effect on crop grade, c: corn (corn): 0 (Herbicidal ratio of 5% or lower (almost no effect))
N: Amaranthus retroflexus, herbicidal effect grade (Amaranthus retroflexus): 0 (Herbicidal ratio of 5% or lower (almost no effect))
R: Veronica persica, herbicidal effect grade (Veronica persica): 0 (Herbicidal ratio of 5% or lower (almost no effect))
d: soybean, effect on crop grade (soybean): 0 (Herbicidal ratio of 5% or lower (almost no effect))
b: directly sowed rice plant, effect on crop grade (rice plant): 4 (Herbicidal ratio of 70% or higher and lower than 90%)
e: wheat, effect on crop grade (wheat): 0 (Herbicidal ratio of 5% or lower (almost no effect))

CON=C(C)CC1CC(O)=C(c2c(C)cc(-c3cc(Cl)cc(Cl)c3)cc2C)C1=O (stereo not drawn) [6-087]
Herbicidal effect grade, B: Scirpus juncoides (Scirpus juncoides [1]): 0 (Herbicidal ratio of 5% or lower (almost no effect))
Herbicidal effect grade, A: Echinochloa oryzacola Vasing. [2]: 2 (Herbicidal ratio of 20% or higher and lower than 40%)
Herbicidal effect grade, B: Scirpus juncoides (Scirpus juncoides [3]): 0 (Herbicidal ratio of 5% or lower (almost no effect))
herbicidal effect on E, grade 0-5 (Cyperus difformis): 0 (Herbicidal ratio of 5% or lower (almost no effect))
Herbicidal effect grade, P: Stellaria media (Stellaria media): 0 (Herbicidal ratio of 5% or lower (almost no effect))
Effect on crop grade, c: corn (corn): 0 (Herbicidal ratio of 5% or lower (almost no effect))
N: Amaranthus retroflexus, herbicidal effect (criteria of Test Example 1) (Amaranthus retroflexus): 0 (Herbicidal ratio of 5% or lower (almost no effect))
R: Veronica persica, herbicidal effect (criteria of Test Example 1) (Veronica persica): 4 (Herbicidal ratio of 70% or higher and lower than 90%)
d: soybean, effect on crop (criteria of Test Example 1) (soybean): 3 (Herbicidal ratio of 40% or higher and lower than 70%)
b: directly sowed rice plant, effect on crop (criteria of Test Example 1) (rice plant): 1 (Herbicidal ratio of 5% or higher and lower than 20%)
e: wheat, effect on crop (criteria of Test Example 1) (wheat): 1 (Herbicidal ratio of 5% or higher and lower than 20%)

From patent publication US11000033B2, “Ketone or oxime compound, and herbicide” (NISSAN CHEMICAL CORPORATION, priority 2014, dated 2021)
